Measurements taken from patent US9682111B2, “Method for preventing or treating neurodegenerative diseases” (priority 2012, dated 2017).

Columns and labels:
[1] = tested on: Caenorhaditiselegans transgene strain CL4176 (expressing Aβ protein); assay: Paralysis of AD model elegans caused by Aβ (transgene strain CL4176); type: in vivo, Caenorhabditis elegans; settings: 15° C. then 26° C., paralysis counted every three hours, blank control 49.503 ± 0.445
Description: Caenorhaditiselegans (Caenorhaditiselegans) transgene strain CL4176 (expressing Aβ protein under temperature inducing) were synchronized and cultured under 15° C. to L1 phase, and then added into coated OP50 microbial medium dishes containing the extracted drugs with different concentrations, at around 25/dish. Three dishes were used in one group. The dishes were cultured under 15° C. for 12 hours and then cultured under 26° C. 36 hours after the change of culturing temperature, the paralyses of the elegans were observed. Count every three hours until all the elegans was paralyzed.

[2] = tested on: pPD95.86::α-SYN transgenic C. elegans; assay: Lifespan of α-SYN transgenic C. elegans (anti-elegan aging experiment); type: in vivo, Caenorhabditis elegans; settings: α-syn transgenic elegans on NGM plates with OP50, 20° C.; α-syn model 11.8 ± 3.66, N2 16 ± 5.68
From the text: pPD95.86::α-SYN transgenic C. elegans were establish by Sun et al. and preserved in the Department of Neurosurgery, the First Affiliated Hospital of Sun Yat-sen University, China. The method for establishing the α-SYN transgenic C. elegans was described in detail by Sun et al. (Toxic effect of Parkinson's disease gene α-Synuclein on Caenorhabditis elegants. New Medicine, 2013, 44 (4): 273-277.)
In brief, a wild-human α-SYN cDNA were amplified by PCR and inserted into the plasmid pPD95.86. Transgenic plasmids were isolated and injected into the gonad of synchronized N2 C. elegants at a concentration of 100 ng/μl. The transgenic F2 (second generation) worms was selected and then mutated under UV radiation. The UV treated F2 worms were backcrossed to wild type worms to generate stable α-SYN transgenic lines. The α-SYN transgenic lines express α-SYN and therefore have shorter life span and impaired motor functions.
A solution containing E. coli OP50, and biotae extracts and diterpenoid compounds of different concentrations are coated onto NGM plates. N2 elegans are synchronized to L4 phase under 20° C. Three plates are employed in one experimental group, and each plate includes about 25 elegans. The number of live elegans is recorded every day, and the elegans are transferred into a new NGM plate when the food is used up or there is mold contamination. The experiment pends till all the elegans are dead.

PC12 cells = assay: MPP+ induced injury of PC12 cells (PD model cells), MTT assay; type: cell-based, rat; design: Relative Cell Activity %: concentration or dose not given beside the values; settings: PC12 cells with MPP+ and test substance, 24 hours; for average OD value: MTT assay, model group 1.061 ± 0.035, normal control 2.198 ± 0.046; for Relative Cell Activity %: MTT, normal control 100, model group 48.3
Description: PC12 cells (rat adrenal pheochromocytoma cell strain), which show many similar characters with dopaminergic neurons, was cultured in DMEM medium (which contains 5% horse serum, 5% fetal bovine serum, 100 U/mL penicillin, 100 µg/mL streptomycin), in an incubator under 37° C., saturated humidity, and 5% CO2. The medium was replaced every 2-3 days, and the cells were subcultured when the cells cover 70-80% area of the plate. Cells in log phase and under fine growth conditions were chosen, and inoculated in 96 well plate at 1-5×10^5 and 100 μl per well. After culturing under 37° C. for 24 hours and the cells adhere to the walls of the wells, MPP^+ medium was added to the model group, a medium containing MPP^+(1-methyl-4-phenylpyridinium) and semen biotae extracts/diterpenoid compounds were added to experimental group, and a medium with no drug was added to the blank control group. Then the media were continued to culture in the incubator for 24 hours. MTT assay was used to evaluate cell activity.

## C=C1CC[C@@H]2[C@](C)(CCC[C@]2(C)C(=O)O)[C@H]1CCC(C)=O [1-Naphthalenecarboxylic acid, decahydro-1,4a-dimethyl-6-methylene-5-(3-oxobutyl)-, (1S,4aR,5S,8aR)-]
[1]
  Average Living Time: 50.991 ± 0.568 h
[2]
  Living time: 14.35 ± 3.9 days
PC12 cells
  average OD value: 1.391 ± 0.038
  Relative Cell Activity %: 63.3%

## C=C1CC[C@@H]2[C@](C)(CCC[C@]2(C)C(=O)O)[C@H]1/C=C/C(C)=O [1-Naphthalenecarboxylic acid, decahydro-1,4a-dimethyl-6-methylene-5-[(1E)-3-oxo-1-butenyl]-, (1S,4aS,5S,8aR)-]
[2]
  Living time: 14.75 ± 2.22 days

## CC(C)c1c(O)ccc2c1CCC1C2(C)C(=O)CC(O)C1(C)C (stereo not drawn) [1-oxo-3β-hydroxytotarol]
[1]
  Average Living Time: 53.478 ± 0.357 h
[2]
  Living time: 14.6 ± 3.63 days
PC12 cells
  average OD value: 1.448 ± 0.057
  Relative Cell Activity %: 65.9%

## C=CC1(C)C=C2C=CC3C(C)(C(=O)O)CCCC3(C)C2CC1 (stereo not shown) [6,7-Dehydrosandarapimaric Acid]
[1]
  Average Living Time: 52.435 ± 0.484 h
[2]
  Living time: 14.7 ± 2.7 days
PC12 cells
  average OD value: 1.435 ± 0.044
  Relative Cell Activity %: 65.3%

## C=CC1(C)C=C2C(O)CC3C(C)(C(=O)O)CCCC3(C)C2CC1 (stereo not drawn) [7α-Hydroxysandaracopimaric acid]
[1]
  Average Living Time: 53.067 ± 0.455 h
[2]
  Living time: 14.3 ± 3.01 days

## C=C[C@@](C)(O)CCC1C(=C)C(O)CC2C(C)(C(=O)O)CCCC12C (stereo partly drawn) [7β,13S-dihydroxylabda-8(17),14-dien-19-oic acid]
[2]
  Living time: 13.7 ± 2.85 days
PC12 cells
  average OD value: 1.359 ± 0.045
  Relative Cell Activity %: 61.8%

## C=C1CCC2C(C)(C(=O)O)CCCC2(C)C1CC1(O)OCC(O)C1(C)O (stereo not shown) [12,13,14-trihydroxylabda-12,15-epoxy-8(17)-en-19-oic acid]
[2]
  Living time: 14 ± 3.67 days
PC12 cells
  average OD value: 1.404 ± 0.057
  Relative Cell Activity %: 63.9%

## C=CC(C)(O)C(O)CC1C(=C)CCC2C(C)(C(=O)O)CCCC12C (stereo not shown) [12,13-Dihydroxylabda-8(17),14-dien-19-oic acid]
[1]
  Average Living Time: 51.008 ± 0.434 h
[2]
  Living time: 14.15 ± 3.1 days

## C=C[C@@](C)(O)CC[C@H]1C(=C)CC[C@@H]2[C@]1(C)CCC[C@]2(C)C(=O)O [13-Epicupressic acid]
[1]
  Average Living Time: 54.015 ± 0.432 h
[2]
  Living time: 13.7 ± 3.34 days

## C=C1CCC2C(C)(C(=O)O)CCCC2(C)C1C/C=C(\C)[C@@H](O)CO (stereo partly drawn) [14(R),15-Dihydroxy-8(17),12(E)-labdadien-19-oic acid]
[2]
  Living time: 14.5 ± 3.76 days
PC12 cells
  average OD value: 1.346 ± 0.059
  Relative Cell Activity %: 61.2%

## C=C1CCC2C(C)(C(=O)OC)CCCC2(C)C1C/C=C/C (stereo not shown) [14,15-Bisnor-8(17),12E-labdadien-19-oic acid methyl ester]
[2]
  Living time: 14.8 ± 3.24 days
PC12 cells
  average OD value: 1.536 ± 0.035
  Relative Cell Activity %: 69.9%

## C=C1CCC2C(C)(C(=O)O)CCCC2(C)C1CCCC(=O)O (stereo not shown) [14,15-bisnor-8(17)-labdene-16,19-dioic acid]
[1]
  Average Living Time: 51.892 ± 0.322 h
[2]
  Living time: 14.35 ± 3.38 days
PC12 cells
  average OD value: 1.292 ± 0.072
  Relative Cell Activity %: 58.8%

## C=C1CCC2C(C)(C(=O)O)CCCC2(C)C1CC/C(=C\CO)CO (stereo not shown) [15,16-Dihydroxy-8(17),13(E)-labdadien-19-oic acid]
[1]
  Average Living Time: 51.217 ± 0.397 h
[2]
  Living time: 14.35 ± 2.62 days

## C=C1CCC2C(C)(C(=O)O)CCCC2(C)C1CCC1=CC(O)OC1=O (stereo not shown) [15-Hydroxypinusolidic acid]
[1]
  Average Living Time: 51.575 ± 0.257 h
[2]
  Living time: 14.1 ± 4.68 days
PC12 cells
  average OD value: 1.585 ± 0.057
  Relative Cell Activity %: 72.1%

## C=C1CCC2C(C)(C(=O)O)CCCC2(C)C1CCC1=CC(OC)OC1=O (stereo not shown) [15-Methoxypinusolidic acid]
[1]
  Average Living Time: 55.012 ± 0.399 h
[2]
  Living time: 13.55 ± 4.05 days

## C=C1CCC2C(C)(C(=O)O)CCCC2(C)C1CC1OCC=C1CC (stereo not shown) [16-Methyl-12,15-epoxy-8(17),13-labdadien-19-oic acid]
[1]
  Average Living Time: 54.336 ± 0.377 h
[2]
  Living time: 13.95 ± 3.9 days

## C=C1CC[C@@H]2[C@](C)(CCC[C@]2(C)C(=O)O)[C@H]1CC[C@H](C)CCO [Imbricatolic acid]
[1]
  Average Living Time: 55.857 ± 0.428 h
[2]
  Living time: 14.25 ± 2.67 days

## C=C1CC[C@@H]2[C@](C)(CCC[C@]2(C)C(=O)O)[C@H]1CC/C(C)=C/CO [Isocupressic acid]
[1]
  Average Living Time: 53.879 ± 0.414 h
[2]
  Living time: 14.85 ± 2.66 days

## C=C[C@@]1(C)CC[C@H]2C(=CC[C@@H]3[C@]2(C)CCC[C@@]3(C)C(=O)O)C1 [Isopimaric acid]
[1]
  Average Living Time: 52.785 ± 0.432 h
[2]
  Living time: 14.9 ± 1.55 days

## C=C1CC[C@@H]2[C@](C)(CCC[C@]2(C)C(=O)O)[C@H]1C/C=C(\C)C=O [Naphthalenecarboxylic acid, decahydro-1,4a-dimethyl-6-methylene-5-[(2E)-3-methyl-4-oxo-2-butenyl]-, (1S,4aR,5S,8aR)-]
[1]
  Average Living Time: 52.136 ± 0.415 h
[2]
  Living time: 14.4 ± 3.42 days
PC12 cells
  average OD value: 1.236 ± 0.085
  Relative Cell Activity %: 56.2%

## C=C1CC[C@@H]2[C@](C)(CCC[C@]2(C)C(=O)OC)[C@H]1CCC1=CCOC1=O [Pinusolide]
[1]
  Average Living Time: 54.003 ± 0.287 h
[2]
  Living time: 15.6 ± 2.74 days

## C=C1CC[C@@H]2[C@](C)(CCC[C@]2(C)C(=O)O)[C@H]1CCC1=CCOC1=O [Pinusolidic acid]
[2]
  Living time: 13.8 ± 3.37 days
PC12 cells
  average OD value: 1.224 ± 0.057
  Relative Cell Activity %: 55.7%

## C=CC1(C)C=C2CCC3C(C)(CO)C(O)CCC3(C)C2CC1 (stereo not drawn) [Sandaracopimaradiene-3β,18-diol]
[2]
  Living time: 14.05 ± 3.49 days
PC12 cells
  average OD value: 1.652 ± 0.015
  Relative Cell Activity %: 75.1%

## C=C[C@]1(C)C=C2CC[C@@H]3[C@](C)(CCC[C@@]3(C)C(=O)O)[C@H]2CC1 [Sandaracopimaric acid]
[1]
  Average Living Time: 53.616 ± 0.443 h
[2]
  Living time: 15.85 ± 3.1 days

## Isopinusolide
[1]
  Average Living Time: 53.988 ± 0.320 h
[2]
  Living time: 13.9 ± 3.65 days

## Platyclolactonic Acid
[2]
  Living time: 13.95 ± 2.26 days

## Platyclolactonic Acid Methyl Ester
[1]
  Average Living Time: 51.393 ± 0.487 h
[2]
  Living time: 14.3 ± 3.08 days
